Source: patent US20120142657A1, “GABA-STEROID ANTAGONISTS AND THEIR USE FOR THE TREATMENT OF CNS DISORDERS” (UMECRINE AB, priority 2004, published 2012)

Biological target: T1, rat GABA-A receptor (alpha1, beta2, gamma2L) (Rattus norvegicus, UniProt P18508+P62813+P63138, INS375LLRMFSFK)
T1 construct: expressed in transfected cells; host or cells: Xenopus laevis oocytes (mRNA injection)
Assay: Chloride flux (current) in recombinant GABA-A receptors expressed in Xenopus laevis oocytes, voltage clamp
Format: cell-based
Conditions: chloride flux induced by GABA alone
Source text: Studies of Chloride Flux in Recombinant GABA-A Receptors (Alpha1, Beta2, Gama2L) Expressed in Xenopus laevis Oocytes Using Voltage Clamp Methods.
The GABA-A receptor used to test the steroids in the present invention was recombinantly expressed in oocytes of Xenopus laevis. The oocytes have a large capacity to express proteins for the surface membrane from mRNA injected into the oocyte. The receptor contains five proteins of three different types and the mRNA for the receptor subtypes alpha1, beta2, gamma2L were expressed in the present test situation. These subtypes of the GABA-A receptor are the most common in the central nervous system. These GABA-A receptors contain two alpha1 proteins, two beta2 and one gamma protein. After 48 hours of incubation the GABA-A receptors are mounted in the membrane and behave in vitro in a similar way as the receptor in situ. Therefore this model system is considered by persons skilled in art to be a good in vitro test system for GABA-A receptor active drugs. The flux of chloride through the chloride channel is a result of GABA activity on the GABA-A receptor and GABA-A receptor modulators like the 3alpha-hydroxy-5alpha/beta-pregnan-steroids can enhance the effectiveness of GABA. The flux of chloride through the receptor is measured as the current induced by the flux with a voltage clamp technique. Dose response curves of the agonists and antagonists can be developed and the current is dependent of the GABA-A receptor activation obtained after the interaction between different dosages of agonists and antagonists. By normalizing the data against a precise current, in the present study 2 μA, the results from different oocytes can be compared and by normalizing the current change against a specific dose, here 10 μM, the different test substances can be compared. The 3alpha-hydroxy-5alpha-pregnan-20-one induced enhancement of GABA mediated chloride flux was set to 1 and obtained by superfusing the GABA-A receptor expressing oocytes with 3 μM GABA+3 μM 3alpha-hydroxy-5alpha-pregnan-20-one in an in vitro bath. The chloride flux was measured as the current induced by the flux of chloride through the GABA-A receptors. The GABA induced chloride flux was set to 1 and obtained by superfusing the GABA-A receptor expressing oocytes in vitro with 30 μM GABA. The inhibiting effect on 3alpha-hydroxy-5alpha-pregnan-20-one induced enhancement of GABA mediated chloride flux by the tested UC-steroids is compared to the inhibiting effect of the same UC-steroids on GABA activation of the GABA-A receptor. In FIG. 1 are the UC-steroids with low GABA antagonism highlighted with an X while the UC-steroids with partial GABA antagonism are highlighted with a black dot ([…]).
On the figure the result are normalized to the control currents activated by 30 µM GABA or 3 μM GABA+3 μM 3alpha-hydroxy-5alpha-pregnan-20-one. The control current in the absence of steroid antagonists is normalized to […]. Each steroid antagonist is tested at 10 μM. […] The black dot ([…]) highlights the steroid antagonist that inhibits both direct GABA-response (30 μM) and 3alpha-hydroxy-5alpha-pregnan-20-one enhanced GABA response. The labels of the data points are marked with product numbers, whereas the numbering of different substances full name is shown in Table 2 and Table 3.
The studies on 3alpha-hydroxy-5alpha-pregnan-20-one inhibition were made in the presence of 3 μM GABA+3 μM 3alpha-hydroxy-5alpha-pregnan-20-one. […] Number of cells recorded n=3-10. […]

T1 sequence (P62813 28-455, stated change not applied): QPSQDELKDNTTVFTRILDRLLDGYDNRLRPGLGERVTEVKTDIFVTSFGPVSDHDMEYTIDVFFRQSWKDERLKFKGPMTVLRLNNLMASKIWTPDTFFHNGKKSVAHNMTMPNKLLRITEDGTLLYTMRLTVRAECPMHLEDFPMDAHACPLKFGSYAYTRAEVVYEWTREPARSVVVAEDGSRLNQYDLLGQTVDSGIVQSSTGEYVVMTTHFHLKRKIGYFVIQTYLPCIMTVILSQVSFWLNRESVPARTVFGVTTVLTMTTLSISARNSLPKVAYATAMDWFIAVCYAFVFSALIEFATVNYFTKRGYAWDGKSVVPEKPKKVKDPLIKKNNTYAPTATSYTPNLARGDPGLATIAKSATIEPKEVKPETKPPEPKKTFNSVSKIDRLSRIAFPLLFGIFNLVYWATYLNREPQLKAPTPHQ
T1 sequence (P63138 26-474, stated change not applied): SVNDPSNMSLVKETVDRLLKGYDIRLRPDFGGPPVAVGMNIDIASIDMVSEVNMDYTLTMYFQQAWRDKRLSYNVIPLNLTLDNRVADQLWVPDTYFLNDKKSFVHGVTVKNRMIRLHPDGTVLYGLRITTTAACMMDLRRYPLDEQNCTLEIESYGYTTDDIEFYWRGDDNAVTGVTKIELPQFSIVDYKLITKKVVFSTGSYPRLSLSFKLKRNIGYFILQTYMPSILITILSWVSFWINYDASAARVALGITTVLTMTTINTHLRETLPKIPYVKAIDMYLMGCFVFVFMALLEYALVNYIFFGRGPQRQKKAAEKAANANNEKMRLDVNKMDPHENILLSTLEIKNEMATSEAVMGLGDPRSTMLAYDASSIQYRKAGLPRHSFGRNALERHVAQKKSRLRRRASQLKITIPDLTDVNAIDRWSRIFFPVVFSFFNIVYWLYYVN
T1 sequence (P18508 with tags, fused parts or gaps INS375LLRMFSFK): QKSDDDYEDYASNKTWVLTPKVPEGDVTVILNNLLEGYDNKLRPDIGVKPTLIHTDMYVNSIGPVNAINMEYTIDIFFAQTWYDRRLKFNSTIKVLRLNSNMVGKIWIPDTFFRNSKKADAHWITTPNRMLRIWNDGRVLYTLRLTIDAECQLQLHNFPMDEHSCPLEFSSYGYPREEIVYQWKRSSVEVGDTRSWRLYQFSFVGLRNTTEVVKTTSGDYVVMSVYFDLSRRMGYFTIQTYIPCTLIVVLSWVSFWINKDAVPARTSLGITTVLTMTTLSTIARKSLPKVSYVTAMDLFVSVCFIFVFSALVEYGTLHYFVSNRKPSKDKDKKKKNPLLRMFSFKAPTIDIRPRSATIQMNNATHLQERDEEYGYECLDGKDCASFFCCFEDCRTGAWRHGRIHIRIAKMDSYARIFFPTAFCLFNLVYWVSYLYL

Structure (SMILES)	antagonism against GABA itself (in words)
CC(O)C1CCC2C3CCC4CC(O)CCC4(C)C3CCC12C (stereo not drawn) [UC1011, 5alpha-PREGNAN-3beta, 20beta-DIOL]	low antagonism against GABA it self
CC(=O)O[C@H]1CC[C@@]2(C)[C@@H](CC[C@@H]3[C@@H]2CC[C@]2(C)[C@@H](C(C)=O)CC[C@@H]32)C1 [UC1012, 5alpha-PREGNAN-3beta-OL-20-ONE ACETATE]	partial antagonism against the GABA effect
C[C@@H](O)[C@H]1CC[C@H]2[C@@H]3CC[C@@H]4C[C@@H](O)CC[C@]4(C)[C@H]3CC[C@]12C [UC1013, 5beta-PREGNAN-3beta, 20alpha-DIOL]	low antagonism against GABA it self
CC(=O)[C@H]1CC[C@H]2[C@@H]3CC[C@@H]4C[C@@H](O)CC[C@]4(C)[C@H]3CC[C@]12C [UC1014, 5beta- PREGNAN-3beta-OL-20-ONE]	partial antagonism against the GABA effect
C[C@]12CC[C@H](O)C[C@H]1CC[C@@H]1[C@@H]2CC[C@]2(C)[C@@H](C(=O)CO)CC[C@@H]12 [UC1015, 5beta-PREGNAN-3beta, 21-DIOL-20-ONE]	partial antagonism against the GABA effect
